Results taken from paper PMC5622171 (Nature Communications, 2017).

Experiments:
Assay in all cases: KINOMEscan kinase profiling
Format in all cases: binding
ABL1-phosphorylated = target: T1, ABL1-phosphorylated (Homo sapiens, UniProt P00519); details: read-out: %Inhibition by 10 μM SPA70
T1 construct: purchased DiscoverX (Ambit Biosciences) KINOMEscan
Experimental: (§1) Kinase inhibition profiling assays. The kinase inhibition profiling assay (KINOMEscan) was performed by Ambit Biosciences, now part of DiscoveryX (Fremont, CA) in accordance with the […]
(§2) published protocol20, 21. […] If the inhibition of a kinase was greater […]
(§3) dilutions) starting from 30 µM.

CAMK1D = target: T2, CAMK1D (Homo sapiens, UniProt Q8IU85); details: read-out: %Inhibition by 10 μM SPA70
T2 construct: purchased DiscoverX (Ambit Biosciences) KINOMEscan
Experimental: as §1, §2, §3

CAMK2D = target: T3, CAMK2D (Homo sapiens, UniProt Q13557); details: read-out: %Inhibition by 10 μM SPA70
T3 construct: purchased DiscoverX (Ambit Biosciences) KINOMEscan
Experimental: as §1, §2, §3

CSNK2A1 = target: T4, CSNK2A1 (Homo sapiens, UniProt P68400); details: read-out: %Inhibition by 10 μM SPA70
T4 construct: purchased DiscoverX (Ambit Biosciences) KINOMEscan
Experimental: as §1, §2, §3

CSNK2A2 = target: T5, CSNK2A2 (Homo sapiens, UniProt P19784); details: read-out: %Inhibition by 10 μM SPA70
T5 construct: purchased DiscoverX (Ambit Biosciences) KINOMEscan
Experimental: as §1, §2, §3

DAPK1 = target: T6, DAPK1 (Homo sapiens, UniProt P53355); details: read-out: %Inhibition by 10 μM SPA70
T6 construct: purchased DiscoverX (Ambit Biosciences) KINOMEscan
Experimental: as §1, §2, §3

DCAMKL3 = target: T7, DCAMKL3 (Homo sapiens, UniProt Q9C098); details: read-out: %Inhibition by 10 μM SPA70
T7 construct: purchased DiscoverX (Ambit Biosciences) KINOMEscan
Experimental: as §1, §2, §3

DMPK2 = target: T8, DMPK2 (Homo sapiens, UniProt Q6DT37); details: read-out: %Inhibition by 10 μM SPA70
T8 construct: purchased DiscoverX (Ambit Biosciences) KINOMEscan
Experimental: as §1, §2, §3

DYRK2 = target: T9, DYRK2 (Homo sapiens, UniProt Q92630); details: read-out: %Inhibition by 10 μM SPA70
T9 construct: purchased DiscoverX (Ambit Biosciences) KINOMEscan
Experimental: as §1, §2, §3

EPHA3 = target: T10, EPHA3 (Homo sapiens, UniProt P29320); details: read-out: %Inhibition by 10 μM SPA70
T10 construct: purchased DiscoverX (Ambit Biosciences) KINOMEscan
Experimental: as §1, §2, §3

ERBB2 = target: T11, ERBB2 (Homo sapiens, UniProt P04626); details: read-out: %Inhibition by 10 μM SPA70
T11 construct: purchased DiscoverX (Ambit Biosciences) KINOMEscan
Experimental: as §1, §2, §3

ERBB4 = target: T12, ERBB4 (Homo sapiens, UniProt Q15303); details: read-out: %Inhibition by 10 μM SPA70
T12 construct: purchased DiscoverX (Ambit Biosciences) KINOMEscan
Experimental: as §1, §2, §3

ERK3 = target: T13, ERK3 (Homo sapiens, UniProt Q16659); details: read-out: %Inhibition by 10 μM SPA70
T13 construct: purchased DiscoverX (Ambit Biosciences) KINOMEscan
Experimental: as §1, §2, §3

ERK5 = target: T14, ERK5 (Homo sapiens, UniProt Q13164); details: read-out: %Inhibition by 10 μM SPA70
T14 construct: purchased DiscoverX (Ambit Biosciences) KINOMEscan
Experimental: as §1, §2, §3

ERN1 = target: T15, ERN1 (Homo sapiens, UniProt O75460); details: read-out: %Inhibition by 10 μM SPA70
T15 construct: purchased DiscoverX (Ambit Biosciences) KINOMEscan
Experimental: as §1, §2, §3

FGFR3 = target: T16, FGFR3 (Homo sapiens, UniProt P22607); details: read-out: %Inhibition by 10 μM SPA70
T16 construct: purchased DiscoverX (Ambit Biosciences) KINOMEscan
Experimental: as §1, §2, §3

INSRR = target: T17, INSRR (Homo sapiens, UniProt P14616); details: read-out: %Inhibition by 10 μM SPA70
T17 construct: purchased DiscoverX (Ambit Biosciences) KINOMEscan
Experimental: as §1, §2, §3

[1] = target: T18, JAK3(JH1domain-catalytic) (Homo sapiens, UniProt P52333); details: read-out: %Inhibition by 10 μM SPA70
T18 construct: JAK3(JH1domain-catalytic); purchased DiscoverX (Ambit Biosciences) KINOMEscan
Experimental: as §1, §2, §3

LYN = target: T19, LYN (Homo sapiens, UniProt P07948); details: read-out: %Inhibition by 10 μM SPA70
T19 construct: purchased DiscoverX (Ambit Biosciences) KINOMEscan
Experimental: as §1, §2, §3

MAK = target: T20, MAK (Homo sapiens, UniProt P20794); details: read-out: %Inhibition by 10 μM SPA70
T20 construct: purchased DiscoverX (Ambit Biosciences) KINOMEscan
Experimental: as §1, §2, §3

MAP4K2 = target: T21, MAP4K2 (Homo sapiens, UniProt Q12851); details: read-out: %Inhibition by 10 μM SPA70
T21 construct: purchased DiscoverX (Ambit Biosciences) KINOMEscan
Experimental: as §1, §2, §3

MARK3 = target: T22, MARK3 (Homo sapiens, UniProt P27448); details: read-out: %Inhibition by 10 μM SPA70
T22 construct: purchased DiscoverX (Ambit Biosciences) KINOMEscan
Experimental: as §1, §2, §3

MEK2 = target: T23, MEK2 (Homo sapiens, UniProt P36507); details: read-out: %Inhibition by 10 μM SPA70
T23 construct: purchased DiscoverX (Ambit Biosciences) KINOMEscan
Experimental: as §1, §2, §3

MEK3 = target: T24, MEK3 (Homo sapiens, UniProt P46734); details: read-out: %Inhibition by 10 μM SPA70
T24 construct: purchased DiscoverX (Ambit Biosciences) KINOMEscan
Experimental: as §1, §2, §3

MST1R = target: T25, MST1R (Homo sapiens, UniProt Q04912); details: read-out: %Inhibition by 10 μM SPA70
T25 construct: purchased DiscoverX (Ambit Biosciences) KINOMEscan
Experimental: as §1, §2, §3

MST3 = target: T26, MST3 (Homo sapiens, UniProt Q9Y6E0)
T26 construct: purchased DiscoverX (Ambit Biosciences) KINOMEscan
Experimental: as §1, §2, §3

NIM1 = target: T27, NIM1 (Homo sapiens, UniProt Q8IY84); details: read-out: %Inhibition by 10 μM SPA70
T27 construct: purchased DiscoverX (Ambit Biosciences) KINOMEscan
Experimental: as §1, §2, §3

PDGFRA = target: T28, PDGFRA (Homo sapiens, UniProt P16234); details: read-out: %Inhibition by 10 μM SPA70
T28 construct: purchased DiscoverX (Ambit Biosciences) KINOMEscan
Experimental: as §1, §2, §3

PHKG1 = target: T29, PHKG1 (Homo sapiens, UniProt Q16816); details: read-out: %Inhibition by 10 μM SPA70
T29 construct: purchased DiscoverX (Ambit Biosciences) KINOMEscan
Experimental: as §1, §2, §3

PIM1 = target: T30, PIM1 (Homo sapiens, UniProt P11309); details: read-out: %Inhibition by 10 μM SPA70
T30 construct: purchased DiscoverX (Ambit Biosciences) KINOMEscan
Experimental: as §1, §2, §3

PRKX = target: T31, PRKX (Homo sapiens, UniProt P51817); details: read-out: %Inhibition by 10 μM SPA70
T31 construct: purchased DiscoverX (Ambit Biosciences) KINOMEscan
Experimental: as §1, §2, §3

RIPK5 = target: T32, RIPK5 (Homo sapiens, UniProt Q6XUX3); details: read-out: %Inhibition by 10 μM SPA70
T32 construct: purchased DiscoverX (Ambit Biosciences) KINOMEscan
Experimental: as §1, §2, §3

[2] = target: T33, RPS6KA4(Kin.Dom.2-C-terminal) (Homo sapiens, UniProt O75676); details: read-out: %Inhibition by 10 μM SPA70
T33 construct: RPS6KA4(Kin.Dom.2-C-terminal); purchased DiscoverX (Ambit Biosciences) KINOMEscan
Experimental: as §1, §2, §3

[3] = target: T34, RPS6KA5(Kin.Dom.1-N-terminal) (Homo sapiens, UniProt O75582); details: read-out: %Inhibition by 10 μM SPA70
T34 construct: RPS6KA5(Kin.Dom.1-N-terminal); purchased DiscoverX (Ambit Biosciences) KINOMEscan
Experimental: as §1, §2, §3

STK16 = target: T35, STK16 (Homo sapiens, UniProt O75716); details: read-out: %Inhibition by 10 μM SPA70
T35 construct: purchased DiscoverX (Ambit Biosciences) KINOMEscan
Experimental: as §1, §2, §3

TAK1 = target: T36, TAK1 (Homo sapiens, UniProt O43318); details: read-out: %Inhibition by 10 μM SPA70
T36 construct: purchased DiscoverX (Ambit Biosciences) KINOMEscan
Experimental: as §1, §2, §3

TIE1 = target: T37, TIE1 (Homo sapiens, UniProt P35590); details: read-out: %Inhibition by 10 μM SPA70
T37 construct: purchased DiscoverX (Ambit Biosciences) KINOMEscan
Experimental: as §1, §2, §3

TNNI3K = target: T38, TNNI3K (Homo sapiens, UniProt Q59H18); details: read-out: %Inhibition by 10 μM SPA70
T38 construct: purchased DiscoverX (Ambit Biosciences) KINOMEscan
Experimental: as §1, §2, §3

TRPM6 = target: T39, TRPM6 (Homo sapiens, UniProt Q9BX84); details: read-out: %Inhibition by 10 μM SPA70
T39 construct: purchased DiscoverX (Ambit Biosciences) KINOMEscan
Experimental: as §1, §2, §3

YANK1 = target: T40, YANK1 (Homo sapiens, UniProt Q8WU08); details: read-out: %Inhibition by 10 μM SPA70
T40 construct: purchased DiscoverX (Ambit Biosciences) KINOMEscan
Experimental: as §1, §2, §3

T11 sequence (P04626 23-1255): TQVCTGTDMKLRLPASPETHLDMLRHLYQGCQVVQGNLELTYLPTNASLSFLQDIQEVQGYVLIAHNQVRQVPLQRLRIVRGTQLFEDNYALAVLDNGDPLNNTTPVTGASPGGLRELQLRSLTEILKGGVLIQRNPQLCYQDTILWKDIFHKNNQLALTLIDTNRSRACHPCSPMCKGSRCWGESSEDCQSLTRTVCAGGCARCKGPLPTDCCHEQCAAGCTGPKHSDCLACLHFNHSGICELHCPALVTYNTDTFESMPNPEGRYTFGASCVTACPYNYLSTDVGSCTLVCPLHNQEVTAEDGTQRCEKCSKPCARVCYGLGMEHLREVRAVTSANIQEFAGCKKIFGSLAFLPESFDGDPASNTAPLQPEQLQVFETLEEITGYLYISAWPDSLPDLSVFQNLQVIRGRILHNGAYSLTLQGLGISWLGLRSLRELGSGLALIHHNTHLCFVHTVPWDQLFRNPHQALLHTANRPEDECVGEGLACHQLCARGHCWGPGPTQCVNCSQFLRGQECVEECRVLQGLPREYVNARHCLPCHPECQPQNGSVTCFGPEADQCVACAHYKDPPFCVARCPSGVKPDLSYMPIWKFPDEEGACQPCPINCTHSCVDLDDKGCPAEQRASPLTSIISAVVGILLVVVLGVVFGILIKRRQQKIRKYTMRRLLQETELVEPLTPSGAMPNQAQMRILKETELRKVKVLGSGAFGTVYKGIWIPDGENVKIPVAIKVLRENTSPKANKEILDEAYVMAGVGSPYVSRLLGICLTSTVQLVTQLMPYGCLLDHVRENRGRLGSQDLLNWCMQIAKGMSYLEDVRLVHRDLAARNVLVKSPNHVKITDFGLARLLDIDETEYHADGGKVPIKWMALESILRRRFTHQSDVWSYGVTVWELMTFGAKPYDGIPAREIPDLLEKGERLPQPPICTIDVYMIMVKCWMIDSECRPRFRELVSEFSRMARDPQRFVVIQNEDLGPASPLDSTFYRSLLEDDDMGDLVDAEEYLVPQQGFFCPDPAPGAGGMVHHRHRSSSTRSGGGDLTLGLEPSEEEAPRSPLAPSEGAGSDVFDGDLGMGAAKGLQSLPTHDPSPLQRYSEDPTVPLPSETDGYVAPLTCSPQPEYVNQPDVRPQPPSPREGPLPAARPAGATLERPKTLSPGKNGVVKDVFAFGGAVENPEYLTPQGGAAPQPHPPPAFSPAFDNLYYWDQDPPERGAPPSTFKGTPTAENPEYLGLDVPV
T8 sequence (Q6DT37 whole entry): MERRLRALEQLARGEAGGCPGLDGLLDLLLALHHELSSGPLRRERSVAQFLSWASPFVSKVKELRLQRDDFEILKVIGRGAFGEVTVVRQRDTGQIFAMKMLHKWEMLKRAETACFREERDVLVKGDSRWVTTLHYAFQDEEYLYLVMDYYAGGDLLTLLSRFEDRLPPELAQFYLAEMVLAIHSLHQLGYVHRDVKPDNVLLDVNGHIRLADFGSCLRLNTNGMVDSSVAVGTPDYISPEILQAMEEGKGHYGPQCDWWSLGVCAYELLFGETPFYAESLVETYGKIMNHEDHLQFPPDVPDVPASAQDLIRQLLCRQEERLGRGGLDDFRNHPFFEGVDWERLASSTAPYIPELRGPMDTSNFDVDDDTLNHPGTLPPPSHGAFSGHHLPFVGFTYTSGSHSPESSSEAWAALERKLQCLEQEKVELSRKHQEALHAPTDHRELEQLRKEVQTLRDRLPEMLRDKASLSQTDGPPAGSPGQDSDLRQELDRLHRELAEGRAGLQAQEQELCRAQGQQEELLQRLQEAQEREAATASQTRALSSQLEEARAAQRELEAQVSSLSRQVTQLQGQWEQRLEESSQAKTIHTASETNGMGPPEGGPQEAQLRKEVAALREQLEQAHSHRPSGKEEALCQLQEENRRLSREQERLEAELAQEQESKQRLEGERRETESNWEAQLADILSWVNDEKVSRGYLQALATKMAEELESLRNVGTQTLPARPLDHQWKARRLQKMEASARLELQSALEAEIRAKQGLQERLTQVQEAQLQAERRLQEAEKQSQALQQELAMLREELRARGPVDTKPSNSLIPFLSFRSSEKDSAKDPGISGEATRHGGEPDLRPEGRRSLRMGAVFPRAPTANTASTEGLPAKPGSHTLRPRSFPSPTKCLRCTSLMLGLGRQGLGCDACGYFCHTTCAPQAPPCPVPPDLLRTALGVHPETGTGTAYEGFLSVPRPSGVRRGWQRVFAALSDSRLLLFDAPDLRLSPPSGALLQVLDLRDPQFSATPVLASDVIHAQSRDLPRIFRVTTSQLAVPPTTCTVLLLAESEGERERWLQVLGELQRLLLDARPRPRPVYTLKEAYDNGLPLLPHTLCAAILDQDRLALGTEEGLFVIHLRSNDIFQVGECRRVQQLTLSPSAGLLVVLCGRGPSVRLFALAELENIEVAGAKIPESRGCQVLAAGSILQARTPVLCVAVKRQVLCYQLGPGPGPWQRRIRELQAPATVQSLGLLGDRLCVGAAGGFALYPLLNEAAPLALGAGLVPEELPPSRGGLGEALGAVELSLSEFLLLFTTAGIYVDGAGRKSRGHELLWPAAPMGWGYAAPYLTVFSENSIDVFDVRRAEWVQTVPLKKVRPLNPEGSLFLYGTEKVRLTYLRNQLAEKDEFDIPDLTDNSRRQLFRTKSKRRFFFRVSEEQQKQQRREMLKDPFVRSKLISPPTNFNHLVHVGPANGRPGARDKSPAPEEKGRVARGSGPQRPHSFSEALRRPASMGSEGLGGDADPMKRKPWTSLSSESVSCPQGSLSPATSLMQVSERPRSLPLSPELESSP
T3 sequence (Q13557 whole entry): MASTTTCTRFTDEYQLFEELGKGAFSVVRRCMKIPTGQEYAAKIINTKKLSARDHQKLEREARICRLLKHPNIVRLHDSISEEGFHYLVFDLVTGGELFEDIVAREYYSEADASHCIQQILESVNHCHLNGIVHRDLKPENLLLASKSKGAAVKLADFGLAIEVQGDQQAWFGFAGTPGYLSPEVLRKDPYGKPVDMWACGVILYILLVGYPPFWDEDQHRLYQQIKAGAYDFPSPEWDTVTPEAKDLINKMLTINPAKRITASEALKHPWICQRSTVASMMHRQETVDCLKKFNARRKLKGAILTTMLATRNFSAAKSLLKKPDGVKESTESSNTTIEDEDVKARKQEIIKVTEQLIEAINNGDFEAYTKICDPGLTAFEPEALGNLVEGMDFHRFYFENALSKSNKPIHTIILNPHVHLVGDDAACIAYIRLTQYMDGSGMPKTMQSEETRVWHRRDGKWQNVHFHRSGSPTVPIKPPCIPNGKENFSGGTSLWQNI
T5 sequence (P19784 whole entry): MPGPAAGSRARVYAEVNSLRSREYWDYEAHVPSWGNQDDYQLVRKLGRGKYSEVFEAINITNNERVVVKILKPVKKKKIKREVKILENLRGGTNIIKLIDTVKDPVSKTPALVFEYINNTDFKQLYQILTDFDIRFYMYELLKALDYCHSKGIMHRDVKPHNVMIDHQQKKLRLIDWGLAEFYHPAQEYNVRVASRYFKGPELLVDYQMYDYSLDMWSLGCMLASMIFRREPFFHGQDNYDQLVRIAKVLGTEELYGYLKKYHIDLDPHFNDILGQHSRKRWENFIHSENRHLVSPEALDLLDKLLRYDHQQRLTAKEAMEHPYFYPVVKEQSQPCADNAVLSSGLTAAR
T30 sequence (P11309 whole entry): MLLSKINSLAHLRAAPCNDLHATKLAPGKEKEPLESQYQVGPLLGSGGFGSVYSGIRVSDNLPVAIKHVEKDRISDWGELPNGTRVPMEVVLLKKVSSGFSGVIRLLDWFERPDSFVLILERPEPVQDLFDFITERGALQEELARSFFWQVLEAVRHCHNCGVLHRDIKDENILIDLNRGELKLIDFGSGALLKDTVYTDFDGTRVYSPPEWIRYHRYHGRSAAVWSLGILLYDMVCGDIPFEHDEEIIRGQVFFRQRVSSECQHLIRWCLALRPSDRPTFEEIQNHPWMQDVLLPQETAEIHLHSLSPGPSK
T1 sequence (P00519 whole entry): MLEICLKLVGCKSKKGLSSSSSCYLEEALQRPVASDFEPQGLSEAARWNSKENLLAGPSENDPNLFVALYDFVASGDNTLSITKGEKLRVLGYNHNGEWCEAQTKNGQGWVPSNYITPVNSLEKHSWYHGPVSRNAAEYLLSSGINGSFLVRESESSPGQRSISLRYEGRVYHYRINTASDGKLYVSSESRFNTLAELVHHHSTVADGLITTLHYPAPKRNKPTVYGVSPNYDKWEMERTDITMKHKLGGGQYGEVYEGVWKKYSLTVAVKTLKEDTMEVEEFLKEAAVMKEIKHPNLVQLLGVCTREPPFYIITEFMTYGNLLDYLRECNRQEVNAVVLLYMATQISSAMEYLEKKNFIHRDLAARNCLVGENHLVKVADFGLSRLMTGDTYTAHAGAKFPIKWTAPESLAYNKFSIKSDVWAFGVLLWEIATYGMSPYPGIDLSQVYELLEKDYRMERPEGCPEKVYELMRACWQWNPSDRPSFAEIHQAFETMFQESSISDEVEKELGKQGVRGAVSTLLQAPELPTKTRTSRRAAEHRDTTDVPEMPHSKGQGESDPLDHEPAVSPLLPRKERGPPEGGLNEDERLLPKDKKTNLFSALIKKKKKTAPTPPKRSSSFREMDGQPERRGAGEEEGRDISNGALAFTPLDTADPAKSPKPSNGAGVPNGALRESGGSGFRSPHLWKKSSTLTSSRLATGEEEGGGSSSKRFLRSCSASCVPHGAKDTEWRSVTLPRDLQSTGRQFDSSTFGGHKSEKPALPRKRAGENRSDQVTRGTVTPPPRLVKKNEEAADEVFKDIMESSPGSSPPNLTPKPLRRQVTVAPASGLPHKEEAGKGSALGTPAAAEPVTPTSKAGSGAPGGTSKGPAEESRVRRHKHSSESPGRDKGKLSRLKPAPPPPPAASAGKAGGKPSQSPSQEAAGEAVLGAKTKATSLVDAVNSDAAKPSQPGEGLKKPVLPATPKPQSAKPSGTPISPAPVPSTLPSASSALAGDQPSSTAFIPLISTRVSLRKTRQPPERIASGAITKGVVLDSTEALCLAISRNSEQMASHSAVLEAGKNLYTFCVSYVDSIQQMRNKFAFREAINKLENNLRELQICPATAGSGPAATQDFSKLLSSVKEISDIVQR

## COc1ccc(OC)c(-n2nnc(S(=O)(=O)c3ccc(C(C)(C)C)cc3)c2C)c1 [SPA70]
ABL1-phosphorylated
  inhibition at 10 µM: 19%
CAMK1D
  inhibition at 10 µM: 20%
CAMK2D
  inhibition at 10 µM: 0%
CSNK2A1
  inhibition at 10 µM: 15%
CSNK2A2
  inhibition at 10 µM: 10%
DAPK1
  inhibition at 10 µM: 10%
DCAMKL3
  inhibition at 10 µM: 0%
DMPK2
  inhibition at 10 µM: 3%
DYRK2
  inhibition at 10 µM: 12%
EPHA3
  inhibition at 10 µM: 26%
ERBB2
  inhibition at 10 µM: 5%
ERBB4
  inhibition at 10 µM: 2%
ERK3
  inhibition at 10 µM: 11%
ERK5
  inhibition at 10 µM: 0%
ERN1
  inhibition at 10 µM: 0%
FGFR3
  inhibition at 10 µM: 0%
INSRR
  inhibition at 10 µM: 0%
[1]
  inhibition at 10 µM: 5%
LYN
  inhibition at 10 µM: 0%
MAK
  inhibition at 10 µM: 13%
MAP4K2
  inhibition at 10 µM: 0%
MARK3
  inhibition at 10 µM: 2%
MEK2
  inhibition at 10 µM: 4%
MEK3
  inhibition at 10 µM: 0%
MST1R
  inhibition at 10 µM: 3%
MST3
  %Inhibition by 10 μM SPA70: 0%
NIM1
  inhibition at 10 µM: 4%
PDGFRA
  inhibition at 10 µM: 36%
PHKG1
  inhibition at 10 µM: 0%
PIM1
  inhibition at 10 µM: 0%
PRKX
  inhibition at 10 µM: 8%
RIPK5
  inhibition at 10 µM: 24%
[2]
  inhibition at 10 µM: 0%
[3]
  inhibition at 10 µM: 14%
STK16
  inhibition at 10 µM: 0%
TAK1
  inhibition at 10 µM: 0%
TIE1
  inhibition at 10 µM: 0%
TNNI3K
  inhibition at 10 µM: 0%
TRPM6
  inhibition at 10 µM: 31%
YANK1
  inhibition at 10 µM: 0%
